Columns and labels:
FGFR2 = biological target: T1, FGFR2 (Homo sapiens, UniProt P21802); test: in vitro FGFR2 kinase assay (CycLex kit / Z'-lyte FRET), dose response; radiometric panel […] at […]; type: biochemical
T1 construct: kinase domains of FGFR2

FGFR1 = FGFR1 (Homo sapiens, UniProt P11362); test: radiometric kinase panel (Millipore), single concentration […]; type: biochemical; conditions: read-out: Inhibition rate at 1 μM (%)
Sequence of FGFR1 (P11362 22-822): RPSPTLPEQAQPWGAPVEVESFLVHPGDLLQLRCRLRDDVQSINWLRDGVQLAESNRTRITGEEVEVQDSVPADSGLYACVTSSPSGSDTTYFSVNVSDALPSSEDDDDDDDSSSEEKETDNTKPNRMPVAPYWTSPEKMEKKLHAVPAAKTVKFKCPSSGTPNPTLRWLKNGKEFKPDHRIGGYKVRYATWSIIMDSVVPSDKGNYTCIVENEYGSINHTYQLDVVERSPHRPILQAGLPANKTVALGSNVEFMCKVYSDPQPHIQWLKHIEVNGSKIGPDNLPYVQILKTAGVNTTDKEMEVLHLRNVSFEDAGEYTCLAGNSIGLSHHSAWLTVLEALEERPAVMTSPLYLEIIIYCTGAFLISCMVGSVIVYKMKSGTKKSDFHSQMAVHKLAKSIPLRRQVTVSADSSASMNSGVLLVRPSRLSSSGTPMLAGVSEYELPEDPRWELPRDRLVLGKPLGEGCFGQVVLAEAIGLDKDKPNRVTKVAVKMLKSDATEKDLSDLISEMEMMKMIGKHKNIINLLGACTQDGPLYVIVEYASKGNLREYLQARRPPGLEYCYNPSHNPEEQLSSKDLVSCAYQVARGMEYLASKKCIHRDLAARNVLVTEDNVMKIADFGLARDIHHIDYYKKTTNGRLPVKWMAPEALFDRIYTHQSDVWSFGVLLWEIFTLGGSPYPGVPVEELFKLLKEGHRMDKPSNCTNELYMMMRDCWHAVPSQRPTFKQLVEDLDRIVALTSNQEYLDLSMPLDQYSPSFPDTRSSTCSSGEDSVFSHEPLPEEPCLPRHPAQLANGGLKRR

T1 sequence (P21802 458-768 limits assumed): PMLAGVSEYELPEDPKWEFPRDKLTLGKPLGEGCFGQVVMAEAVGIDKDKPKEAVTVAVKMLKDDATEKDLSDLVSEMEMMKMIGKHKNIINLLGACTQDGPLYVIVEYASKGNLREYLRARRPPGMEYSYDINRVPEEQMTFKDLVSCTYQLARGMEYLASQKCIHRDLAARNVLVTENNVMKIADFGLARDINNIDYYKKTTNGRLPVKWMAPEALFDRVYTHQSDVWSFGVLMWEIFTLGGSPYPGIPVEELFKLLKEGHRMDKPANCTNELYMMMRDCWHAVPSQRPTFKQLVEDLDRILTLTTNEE

IC50 (FGFR2): ~4.31 µM
inhibition at 1 µM (FGFR1): 57 ± 4%
Compound: COc1ccc(-c2coc3cc(O)ccc3c2=O)cc1 [formononetin]
